Assay results from patent publication US8088930B2, “Benzimidazole derivatives” (Hoffmann-La Roche Inc., priority 2008, dated 2012).
pIC50: −log10 of the molar value.

Biological target: T1, FXR ligand binding domain (GST-FXR LBD fusion protein, human FXR aa 193-473) (Homo sapiens, UniProt Q96RI1)
T1 construct: fused on or other part: Glutathione-S-transferase (GST) fused N-terminally to the FXR LBD, used to capture the protein on glutathione SPA beads
T1 sequence (Q96RI1 211-486 limits assumed): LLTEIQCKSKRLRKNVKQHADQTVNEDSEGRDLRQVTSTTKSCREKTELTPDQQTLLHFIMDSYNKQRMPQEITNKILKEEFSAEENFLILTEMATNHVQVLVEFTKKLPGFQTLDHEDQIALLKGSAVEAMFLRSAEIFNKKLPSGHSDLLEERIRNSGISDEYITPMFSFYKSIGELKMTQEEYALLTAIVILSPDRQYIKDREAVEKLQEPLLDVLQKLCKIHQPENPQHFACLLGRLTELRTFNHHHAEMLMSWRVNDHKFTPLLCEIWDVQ
Assay: Radioligand binding assay (scintillation proximity, radioligand displacement)
Conditions: 40 nM GST-FXR LBD on SPA beads, test compound 6×10^−9 M to 2.5×10^−5 M, read-out: h-IC50 Binding
Description: The following tests were carried out in order to determine the activity of the compounds of formula (I).
To accomplish this, the portions of the sequences encoding the FXR LBD were amplified by polymerase chain reaction (PCR) from a full-length clone by PCR and then subcloned into the plasmid vectors. The final clone was verified by DNA sequence analysis.
The induction, expression, and subsequent purification of GST-LBD fusion protein was performed in E. coli strain BL21(pLysS) cells by standard methods (Current Protocols in Molecular Biology, Wiley Press, ed. Ausubel et al.).
Radioligand Binding Assay
Binding of test substances to the FXR ligand binding domain was assessed in a radioligand displacement assay. The assay was performed in a buffer consisting of 50 mM Hepes, pH 7.4, 10 mM NaCl, 5 mM MgCl2, 0.01% CHAPS. For each reaction well in a 96-well plate, 40 nM of GST-FXR LBD fusion protein was bound to 10 μg glutathione yttrium silicate SPA beads (Pharmacia Amersham) in a final volume of 50 μl by shaking. A radioligand (e.g., 20 nM of 2,N-dicyclohexyl-2-[2-(2,4 dimethoxy-phenyl)-benzoimidazol-1-yl]-acetamide) and test compounds were added, and scintillation proximity counting was performed. All binding assays were performed in 96-well plates and the amount of bound ligand was measured on a Packard TopCount using OptiPlates (Packard).

| SMILES | pIC50 |
| --- | --- |
| O=C(O)C1(Oc2ccc(OCC(C3CCCCC3)n3c(-c4ccc(Cl)cc4)nc4cc(F)c(F)cc43)nc2)CC1 (single isomer, unassigned; (-)) [Example 51, (−)-1-(6-{2-[2-(4-Chloro-phenyl)-5,6-difluoro-benzoimidazol-1-yl]-2-cyclohexyl-ethoxy}-pyridin-3-yloxy)-cyclopropanecarboxylic acid] | 6.52 |
| Fc1cc2nc(-c3ccc(Cl)cc3)n(C(COc3ccc(-c4nnn[nH]4)cn3)C3CCCCC3)c2cc1F (single isomer, unassigned; (-)) [Example 63, (−)-2-(4-Chloro-phenyl)-1-{1-cyclohexyl-2-[5-(1H-tetrazol-5-yl)-pyridin-2-yloxy]-ethyl}-5,6-difluoro-1H-benzoimidazole] | 7.05 |
| Cc1cc(-c2nnn[nH]2)cc(C)c1OCC(C1CCCCC1)n1c(-c2ccc(Cl)cc2)nc2cc(F)c(F)cc21 (single isomer, unassigned; (-)) [Example 71, (−)-2-(4-Chloro-phenyl)-1-{1-cyclohexyl-2-[2,6-dimethyl-4-(1H-tetrazol-5-yl)-phenoxy]-ethyl}-5,6-difluoro-1H-benzoimidazole] | 7.22 |
| COc1ccc(-c2nc3cc(F)c(F)cc3n2C(COc2ccc(C(=O)O)cn2)C2CCCCC2)c(OC)n1 (single isomer, unassigned; (-)) [Example 75, (−)-6-{2-Cyclohexyl-2-[2-(2,6-dimethoxy-pyridin-3-yl)-5,6-difluoro-benzoimidazol-1-yl]-ethoxy}-nicotinic acid] | 7.05 |
| Fc1cc2nc(-c3ccc(Cl)cc3)n(C(COc3ccc(-c4nnn[nH]4)cc3F)C3CCCCC3)c2cc1F (single isomer, unassigned; (-)) [Example 81, (−)-2-(4-Chloro-phenyl)-1-{1-cyclohexyl-2-[2-fluoro-4-(1H-tetrazol-5-yl)-phenoxy]-ethyl}-5,6-difluoro-1H-benzoimidazole] | 8.00 |
| CC(C)(Oc1ccc(-c2nnn[nH]2)cc1)C(C1CCCCC1)n1c(-c2ccc(Cl)cc2)nc2cc(F)c(F)cc21 (single isomer, unassigned; (-)) [Example 88, (−)-2-(4-Chloro-phenyl)-1-{1-cyclohexyl-2-methyl-2-[4-(1H-tetrazol-5-yl)-phenoxy]-propyl}-5,6-difluoro-1H-benzoimidazole] | 8.52 |
| CC(C)(Oc1ccc(C(=O)O)cc1)C(C1CCCCC1)n1c(-c2ccc(Cl)cc2)nc2cc(F)c(F)cc21 (single isomer, unassigned; (-)) [Example 89, (−)-4-{2-[2-(4-Chloro-phenyl)-5,6-difluoro-benzoimidazol-1-yl]-2-cyclohexyl-1,1-dimethyl-ethoxy}-benzoic acid] | 8.00 |
| COc1ccc(-c2nc3cc(F)c(F)cc3n2C(COc2c(C)cc(-c3nnn[nH]3)cc2C)C2CCCCC2)c(OC)n1 (single isomer, unassigned; (-)) [Example 101, (−)-1-{1-Cyclohexyl-2-[2,6-dimethyl-4-(1H-tetrazol-5-yl)-phenoxy]-ethyl}-2-(2,6-dimethoxy-pyridin-3-yl)-5,6-difluoro-1H-benzoimidazole] | 9.70 |
| Cc1cc(C(=O)O)cc(C)c1OCC(C1CCCCC1)n1c(-c2ccc(Cl)cc2)nc2ccccc21 (single isomer, unassigned; (-)) [Example 106, (−)-4-{2-[2-(4-Chloro-phenyl)-benzoimidazol-1-yl]-2-cyclohexyl-ethoxy}-3,5-dimethyl-benzoic acid] | 7.00 |
| Cc1cc(-c2nnn[nH]2)cc(C)c1OCC(C1CCCCC1)n1c(-c2ccc(Cl)cc2)nc2ccccc21 (single isomer, unassigned; (-)) [Example 112, (−)-2-(4-Chloro-phenyl)-1-{1-cyclohexyl-2-[2,6-dimethyl-4-(1H-tetrazol-5-yl)-phenoxy]-ethyl}-1H-benzoimidazole] | 6.96 |
| O=C(O)C1(Oc2ccc(OCC(C3CCCCC3)n3c(-c4ccc(Cl)cc4)nc4cc(F)c(F)cc43)cc2)CCC1 (single isomer, unassigned; (-)) [Example 119, (−)-1-(4-{2-[2-(4-Chloro-phenyl)-5,6-difluoro-benzoimidazol-1-yl]-2-cyclohexyl-ethoxy}-phenoxy)-cyclobutanecarboxylic acid] | 6.96 |
| O=C(O)C1(Oc2ccc(OCC(C3CCCCC3)n3c(-c4ccc(Cl)cc4)nc4cc(F)c(F)cc43)cc2)CC1 (single isomer, unassigned; (-)) [Example 121, (−)-1-(4-{2-[2-(4-Chloro-phenyl)-5,6-difluoro-benzoimidazol-1-yl]-2-cyclohexyl-ethoxy}-phenoxy)-cyclopropanecarboxylic acid] | 7.70 |

More lines, now with the values ahead:

| pIC50 | SMILES |
| --- | --- |
| 8.40 | Cc1cc(C(=O)O)cc(C)c1OCC(C1CCCCC1)n1c(-c2ccc(Cl)cc2)nc2cc(F)c(F)cc21 (single isomer, unassigned; (-)) [Example 55, (−)-4-{2-[2-(4-Chloro-phenyl)-5,6-difluoro-benzoimidazol-1-yl]-2-cyclohexyl-ethoxy}-3,5-dimethyl-benzoic acid] |
| 6.70 | O=C(O)c1ccc(COCC(C2CCCCC2)n2c(-c3ccc(Cl)cc3)nc3cc(F)c(F)cc32)c(F)c1 (single isomer, unassigned; (-)) [Example 65, (−)-4-{2-[2-(4-Chloro-phenyl)-5,6-difluoro-benzoimidazol-1-yl]-2-cyclohexyl-ethoxymethyl}-3-fluoro-benzoic] |
| 7.22 | O=C(O)c1ccc(COCC(C2CCCCC2)n2c(-c3ccc(Cl)cc3)nc3cc(F)c(F)cc32)cc1 (single isomer, unassigned; (-)) [Example 68, (−)-4-{2-[2-(4-Chloro-phenyl)-5,6-difluoro-benzoimidazol-1-yl]-2-cyclohexyl-ethoxymethyl}-benzoic acid] |
| 8.52 | O=C(O)c1cc(F)c(OCC(C2CCCCC2)n2c(-c3ccc(Cl)cc3)nc3cc(F)c(F)cc32)c(Cl)c1 (single isomer, unassigned; (-)) [Example 77, (−)-3-Chloro-4-{2-[2-(4-chloro-phenyl)-5,6-difluoro-benzoimidazol-1-yl]-2-cyclohexyl-ethoxy}-5-fluoro-benzoic acid] |
| 8.52 | O=C(O)c1cc(F)c(OCC(C2CCCCC2)n2c(-c3ccc(Cl)cc3)nc3cc(F)c(F)cc32)c(F)c1 (single isomer, unassigned; (-)) [Example 86, (−)-4-{2-[2-(4-Chloro-phenyl)-5,6-difluoro-benzoimidazol-1-yl]-2-cyclohexyl-ethoxy}-3,5-difluoro-benzoic acid] |
| 9.00 | COc1ccc(-c2nc3cc(F)c(F)cc3n2C(COc2c(F)cc(C(=O)O)cc2F)C2CCCCC2)c(OC)n1 (single isomer, unassigned; (-)) [Example 98, (−)-4-{2-Cyclohexyl-2-[2-(2,6-dimethoxy-pyridin-3-yl)-5,6-difluoro-benzoimidazol-1-yl]-ethoxy}-3,5-difluoro-benzoic acid] |
| 7.30 | O=C(O)c1cc(F)c(OCC(C2CCCCC2)n2c(-c3ccc(Cl)cc3)nc3ccccc32)c(F)c1 (single isomer, unassigned; (-)) [Example 104, (−)-4-{2-[2-(4-Chloro-phenyl)-benzoimidazol-1-yl]-2-cyclohexyl-ethoxy}-3,5-difluoro-benzoic acid] |
| 7.52 | O=C(O)c1cc(F)c(OCC(C2CCCCC2)n2c(-c3ccc(Cl)cc3)nc3ccccc32)c(Cl)c1 (single isomer, unassigned; (-)) [Example 109, (−)-3-Chloro-4-{2-[2-(4-chloro-phenyl)-benzoimidazol-1-yl]-2-cyclohexyl-ethoxy}-5-fluoro-benzoic acid] |
